The nature of the data set: GHS categories as the set defines them, by LD50: 1 up to 5, 2 up to 50, 3 up to 300, 4 up to 2000, 5 above 2000 mg/kg. The conditions noted are these: rat; in vivo; po.

In turn, `CC(=O)OCCCCCCCCCOC(C)=O` had a GHS category of 5.

Compound `CC(=O)O[C@]1(C(C)=O)CC[C@H]2[C@@H]3C[C@H](C)C4=CC(=O)CC[C@]4(C)[C@H]3CC[C@@]21C` had a GHS category of 5.

In the case of `CCN1C(=CC=CC=Cc2sc3ccccc3[n+]2CC)Sc2ccccc21`, the GHS category is listed as 3.

Take `CCCCCC1C(=O)CCC1CC(=O)OC` (centres undefined): the GHS category was determined as 5.

The compound `CC(=O)Oc1ccccc1C(=O)Nc1ncc([N+](=O)[O-])s1` returned a GHS category of 5.

`CN(C)CCCOc1nn(-c2cccc(C(F)(F)F)c2)c2ncccc12` yielded a GHS category of 4.

With `C[C@@H](O)[C@H]1C(=O)N2C(C(=O)O)=C(SCCNC=N)C[C@H]12`, the GHS category was found to be 5.

`NC(=O)Nc1ccc(Cl)c(Cl)c1` returned a GHS category of 4.

For `O=S(=O)(O)c1cccc(Nc2nc(NCCO)nc(Nc3ccc(/C=C/c4ccc(Nc5nc(NCCO)nc(Nc6cccc(S(=O)(=O)O)c6)n5)cc4S(=O)(=O)O)c(S(=O)(=O)O)c3)n2)c1`, the GHS category was determined as 5.

For the compound `O=C1Nc2ccccc2C1=O`, the GHS category was 5.

As for `CC(CC(C)(C)C)CC(C)(C)CC(C)(C)C` (centres undefined), the GHS category is reported as 5.

For `CNC(=O)c1cnc2cccc(C)n2c1=O`, the GHS category is given as 3.

The compound `O=c1n(CCO)c(=O)n(CCO)c(=O)n1CCO` displayed a GHS category of 5.

`CCCCCCC(C(C)=O)C(=O)OCC` (centres undefined) showed a GHS category of 5.

Compound `CC(=O)OCC(=O)[C@@]1(OC(C)=O)CC[C@H]2[C@@H]3C[C@@H](F)C4=CC(=O)C(Br)=C[C@]4(C)[C@@]3(F)[C@@H](O)C[C@@]21C` showed a GHS category of 5.

For the compound `CCCC(O)CCO` (centres undefined), the GHS category is 5.

`O=C1OC(CBr)CC12CC(CBr)OC2=O` (centres undefined) returned a GHS category of 5.

Take `CCOC(=O)c1c[nH]c2c(F)c(F)c(F)cc2c1=O`: the GHS category was determined as 5.

`O=C(Nc1ccc(Cl)cc1)c1ccccc1` returned a GHS category of 4.

In turn, `CC(=O)Nc1ccccc1CCNC(=O)c1ccc2ccccc2c1O` showed a GHS category of 5.

Compound `O=c1nc(Cl)nc(Cl)[nH]1` registered a GHS category of 5.

`CC(=O)N(C)C(=O)Oc1cccc2c1OC1(CCCCC1)O2` returned a GHS category of 4.

`C=C1CC[C@@]23C[C@@H]1C(C)(C)[C@@H]2C(O)C[C@H]3C` (some centres undefined) gave a GHS category of 5.

`CCC(C(=O)Oc1ccccc1OC)c1ccc(-c2ccccc2)cc1` (centres undefined) registered a GHS category of 5.

As for `O=C(O)Cc1ccc(OCC(O)CO)c(Cl)c1` (centres undefined), the GHS category was found to be 5.

In the case of `CCC(CO)(CO)C(=O)O`, the GHS category was found to be 5.

`CCCCCCCCCC(=O)Oc1ccc(C(=O)O)cc1` gave a GHS category of 5.

Consider `C=CC(C)(CCC=C(C)C)OC=O` (centres undefined), for which the GHS category is recorded as 5.

As for `CCCCCCCC/C=C\CCCCCCCCCCCC(=O)O`, the GHS category stood at 5.

With `CCOC(=O)C(Br)CC` (centres undefined), the GHS category was 4.

`CC1(C)S[C@@H]2[C@H](NC(=O)COc3ccccc3)C(=O)N2[C@H]1C(=O)O` came in with a GHS category of 4.

`COc1ccc(C=C(C(=O)Nc2ccccc2C(=O)O)C(=O)Nc2ccccc2C(=O)O)cc1OC`: the GHS category worked out at 5.

For the compound `C/C=C(\C)C(=O)OC/C=C(\C)CCC=C(C)C`, the GHS category stood at 5.

Take `O=P(O)(O)c1ccccc1`: the GHS category stood at 5.

As for `O=C(Nc1ccc(NC(=O)c2cc3ccccc3c(N=Nc3cc(Cl)ccc3Cl)c2O)c(Cl)c1)c1cc2ccccc2c(N=Nc2cc(Cl)ccc2Cl)c1O`, the GHS category is on record as 5.

As to `C[C@]12Cc3nonc3C[C@@H]1CC[C@@H]1[C@@H]2CC[C@@]2(C)[C@H]1CC[C@]2(C)O`, the GHS category worked out at 5.

As for `OC(OCC(COC(O)C(Cl)(Cl)Cl)(COC(O)C(Cl)(Cl)Cl)COC(O)C(Cl)(Cl)Cl)C(Cl)(Cl)Cl` (centres undefined), the GHS category is 4.

The compound `c1ccc([Si]2(c3ccccc3)O[Si](c3ccccc3)(c3ccccc3)O[Si](c3ccccc3)(c3ccccc3)O[Si](c3ccccc3)(c3ccccc3)O2)cc1` returned a GHS category of 5.

As to `O=C(O)C(=O)Nc1cccc(-c2nnn[nH]2)c1`, the GHS category worked out at 5.

Values taken from the CATMoS acute toxicity set (Mansouri et al. 2021).
